This note sets out measurements from ChEMBL document CHEMBL1201862, “PubChem BioAssay data set” (2004).

Among the test systems are 786-0; A498; CAKI-1; COLO 205; Hs-578T; IGROV-1; KM12; LOX IMVI; MDA-MB-435; Malme-3M; NCI-H522; OVCAR-8; SF-295; SN12C; SR; TK-10; U-251; UACC-257; SNB-19; SF-539.
What all share (test): NCI anticancer screen, dose series, 48 h

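These data come from cells grown in 96-well plates and exposed to compound for 48 hours at five concentrations. Abbreviation: GI50, concentration required for 50% inhibition of growth.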 Active and inactive are the calls of the source. Rule as the data show it: active = GI50 up to about 1.1 µM and inactive = higher. Some results are limits rather than exact numbers.

On to `COc1ccc(-c2ncnc(-c3ccc(OC)c(OC)c3)n2)cc1OC`, for which the GI50 in the test with 786-0, with A498, in the test on CAKI-1, in the test on COLO 205, in the test on Hs-578T and in the test on IGROV-1 was > 100 µM (inactive) each time. Further, the GI50 with KM12, in the test on LOX IMVI, in the test on MDA-MB-435, with Malme-3M, in the test with NCI-H522 and in the test with OVCAR-8 was > 100 µM (inactive) in each case. In addition, the GI50 in the test on SF-295 was > 100 µM (inactive); in the test on SN12C it was > 100 µM (inactive); with SR, 45.2 µM (inactive); with TK-10, > 100 µM (inactive); with U-251 it was > 100 µM (inactive); in the test on UACC-257, > 100 µM (inactive).
As to `CCN1CC2=C(OC(N)=C(C#N)C2c2ccc(Cl)cc2)/C(=C/c2ccc(Cl)cc2)C1` (stereo unspecified), the GI50 in the test with 786-0 was 12.1 µM (inactive); in the test with A498, 16.5 µM (inactive); in the test with CAKI-1 it was 10.2 µM (inactive); in the test with COLO 205, 52.4 µM (inactive); in the test on Hs-578T it was 22.6 µM (inactive); in the test with IGROV-1, 20.8 µM (inactive). For the same compound, the GI50 in the test with KM12 was 33.2 µM (inactive); in the test on LOX IMVI, 26.8 µM (inactive); in the test with MDA-MB-435, 43.3 µM (inactive); with Malme-3M, 18.9 µM (inactive); in the test with NCI-H522, 25.1 µM (inactive); in the test on OVCAR-8, 16.6 µM (inactive). Besides, the GI50 with SF-295 was 30.1 µM (inactive); in the test with SNB-19, 15 µM (inactive); in the test on SR, 31.9 µM (inactive); in the test with TK-10, 21 µM (inactive); in the test on U-251 it was 16.4 µM (inactive); in the test on UACC-257, 28.1 µM (inactive).
With `CC/C=C/C[C@H](O)[C@H]1C[C@H]2O[C@H](CC(=O)OC)C[C@H]2O1`, the GI50 in the test with 786-0, in the test on A498, in the test with CAKI-1, with COLO 205, with Hs-578T and with IGROV-1 was > 100 µM (inactive) in each case. Further, the GI50 in the test on KM12, in the test on LOX IMVI, in the test with MDA-MB-435, with Malme-3M, in the test on NCI-H522 and with OVCAR-8 was > 100 µM (inactive) each time. The GI50 in the test on SF-295, in the test with SN12C, in the test with SNB-19, in the test on SR and in the test with U-251 was > 100 µM (inactive) throughout.
In the case of `COc1cccc(/C=N/C(/N=C/c2cccc(OC)c2O)c2cccc(OC)c2O)c1O`, the GI50 in the test on 786-0 is 23.3 µM (inactive); in the test on CAKI-1 it was 19.6 µM (inactive); in the test with COLO 205, 32.1 µM (inactive); in the test on Hs-578T it was 17.6 µM (inactive); in the test with IGROV-1, 21.7 µM (inactive); in the test on KM12, 22.6 µM (inactive). The GI50 in the test on LOX IMVI was 10.5 µM (inactive); with MDA-MB-435, 28.3 µM (inactive); in the test on NCI-H522, 21.8 µM (inactive); in the test with OVCAR-8, 12.6 µM (inactive); in the test with SF-295, 23.6 µM (inactive); with SF-539, 20.1 µM (inactive). Also, the GI50 was 19.2 µM (inactive) in the test on SN12C; 22.6 µM (inactive) in the test with SNB-19; 6.38 µM (inactive) with SR; 15.7 µM (inactive) in the test with TK-10; 15.6 µM (inactive) with U-251; 23.1 µM (inactive) in the test on UACC-257.
`Fc1ccccc1CN1COc2c(cc(Cl)c3cccnc23)C1`: the GI50 in the test with 786-0 was 2.65 µM (inactive); in the test with CAKI-1, 1.65 µM (inactive); with COLO 205 it was 14.2 µM (inactive); in the test with Hs-578T, 3.15 µM (inactive); with IGROV-1 it was 4.55 µM (inactive); with KM12, 2.23 µM (inactive). The GI50 in the test with MDA-MB-435 is 2.54 µM (inactive); in the test with Malme-3M, 2.28 µM (inactive); in the test on NCI-H522 it was 2.68 µM (inactive); in the test with OVCAR-8, 1.53 µM (inactive); with SF-295, 0.726 µM (active); with SF-539, 1.22 µM (inactive). Besides, the GI50 is 0.215 µM (active) with SN12C; 2.24 µM (inactive) in the test on SNB-19; 0.389 µM (active) with SR; 3.09 µM (inactive) with TK-10; 1.56 µM (inactive) with U-251; 2.51 µM (inactive) with UACC-257.
Turning to `N#CCc1nc(-c2ccccc2)n[nH]1`, the GI50 in the test with 786-0 was > 100 µM (inactive); in the test with CAKI-1 it was > 100 µM (inactive); with COLO 205, > 100 µM (inactive); in the test with Hs-578T, 77.4 µM (inactive); in the test with IGROV-1, > 100 µM (inactive); in the test on KM12, > 100 µM (inactive). Also, the GI50 in the test with LOX IMVI, in the test with MDA-MB-435, in the test with Malme-3M, in the test on NCI-H522, in the test on OVCAR-8 and in the test on SF-295 was > 100 µM (inactive) throughout. The GI50 with SF-539 was > 100 µM (inactive); in the test on SN12C it was > 100 µM (inactive); in the test with SNB-19 it was 74 µM (inactive); in the test on SR it was > 100 µM (inactive); with TK-10, > 100 µM (inactive); with UACC-257 it was > 100 µM (inactive).
On to `N#CCCN(CCCCN(CCC#N)C(=O)Nc1ccccc1)C(=O)Nc1ccccc1`, for which the GI50 with 786-0, in the test on A498, in the test with CAKI-1, in the test with COLO 205, in the test on Hs-578T and with IGROV-1 was > 100 µM (inactive) each time. In addition, the GI50 in the test on KM12, in the test on LOX IMVI, in the test with MDA-MB-435, with Malme-3M, in the test with NCI-H522 and in the test on OVCAR-8 was > 100 µM (inactive) each time. Besides, the GI50 with SF-295, in the test on SN12C, in the test with SNB-19, in the test on SR and with U-251 was > 100 µM (inactive) throughout.
In the case of `COc1ccc(P2(=S)OC(C)(C)C(C)(C)O2)cc1`, the GI50 is > 100 µM (inactive) in the test with 786-0; 50.9 µM (inactive) in the test on CAKI-1; > 100 µM (inactive) in the test on Hs-578T; > 100 µM (inactive) with IGROV-1; > 100 µM (inactive) in the test on KM12; > 100 µM (inactive) in the test with LOX IMVI. For the same compound, the GI50 with MDA-MB-435, in the test with Malme-3M, in the test with NCI-H522, with OVCAR-8, in the test on SF-295 and with SF-539 was > 100 µM (inactive) in each case. Also, the GI50 in the test on SN12C, with SNB-19, with SR, in the test with TK-10, in the test on U-251 and in the test on UACC-257 was > 100 µM (inactive) in each case.
`CS/C(=N\C#N)S/C=C/C(=O)c1ccc(Cl)cc1`: the GI50 in the test with 786-0 was 20.8 µM (inactive); in the test with CAKI-1 it was 6.52 µM (inactive); with COLO 205, 25.4 µM (inactive); with Hs-578T it was 32.7 µM (inactive); with IGROV-1, 18.3 µM (inactive); in the test with KM12, 45.7 µM (inactive). The GI50 with MDA-MB-435 was 24.9 µM (inactive); with Malme-3M it was 26.4 µM (inactive); with NCI-H522 it was 18.3 µM (inactive); in the test on OVCAR-8, 20.2 µM (inactive); in the test on SF-295, 29.1 µM (inactive); in the test on SF-539, 20.8 µM (inactive). In addition, the GI50 with SN12C was 26.2 µM (inactive); in the test with SNB-19, 42 µM (inactive); with SR it was 3.13 µM (inactive); in the test on TK-10 it was 23.6 µM (inactive); in the test on U-251, 31.9 µM (inactive); in the test on UACC-257 it was 20.9 µM (inactive).
For the compound `CC(=O)OCCn1cnc2nc(Nc3ccccc3)nc(Cl)c21`, the GI50 was > 100 µM (inactive) in the test with 786-0; > 100 µM (inactive) in the test on A498; 47.5 µM (inactive) in the test with COLO 205; > 100 µM (inactive) in the test on Hs-578T; > 100 µM (inactive) with IGROV-1; 29.2 µM (inactive) in the test on KM12. Besides, the GI50 is 44.4 µM (inactive) with LOX IMVI; 25.1 µM (inactive) in the test on MDA-MB-435; > 100 µM (inactive) in the test on Malme-3M; 84.9 µM (inactive) in the test on NCI-H522; > 100 µM (inactive) in the test with OVCAR-8; 82 µM (inactive) in the test on SF-295. Further, the GI50 in the test with SF-539 was > 100 µM (inactive); with SN12C, > 100 µM (inactive); in the test with SNB-19, > 100 µM (inactive); with SR, 54.8 µM (inactive); in the test on TK-10, > 100 µM (inactive); in the test on U-251 it was 58.3 µM (inactive). In addition, the GI50 in the test on UACC-257 is 76.9 µM (inactive).
For the compound `C=C(CCOC)CCC1CCCCC/C1=N\N(C)C` (stereo unspecified), the GI50 in the test with 786-0, with A498, in the test with CAKI-1, with COLO 205, in the test on Hs-578T and in the test with IGROV-1 was > 100 µM (inactive) throughout. For the same compound, the GI50 in the test on KM12, in the test with LOX IMVI, with MDA-MB-435, in the test with Malme-3M, in the test on NCI-H522 and in the test on OVCAR-8 was > 100 µM (inactive) in each case. Also, the GI50 in the test on SF-295, with SN12C, with SNB-19, in the test with SR and in the test on U-251 was > 100 µM (inactive) throughout.
